Measured values reported in BindingDB's records for patent US20230391758 (Merck Sharp & Dohme, 2023).

Molecular target: T1, Ceramide glucosyltransferase (Homo sapiens, UniProt Q16739)
T1 sequence (Q16739 whole entry): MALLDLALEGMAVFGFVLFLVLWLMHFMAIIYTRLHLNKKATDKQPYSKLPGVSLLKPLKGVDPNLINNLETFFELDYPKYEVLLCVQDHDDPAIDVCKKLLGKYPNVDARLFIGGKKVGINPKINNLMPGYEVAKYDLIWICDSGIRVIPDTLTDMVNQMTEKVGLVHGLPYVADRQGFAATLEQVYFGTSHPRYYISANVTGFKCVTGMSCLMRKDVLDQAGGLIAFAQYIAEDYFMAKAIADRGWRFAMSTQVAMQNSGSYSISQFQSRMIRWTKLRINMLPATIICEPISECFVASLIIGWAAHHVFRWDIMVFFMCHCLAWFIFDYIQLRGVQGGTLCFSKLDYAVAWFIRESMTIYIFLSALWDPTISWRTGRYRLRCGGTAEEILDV
Assay: UDP-Glo Glucosylceramide Synthase Biochemical Assay
Experimental: Using Promega's UDP-Glo™ Glycosyltransferase assay kit (Promega Corporation, Madison, WI, USA (Promega)), GCS activity was indirectly measured by detecting the amount of UDP produced. An aliquot of GCS enzyme (1.5 μg crude golgi preparation, total protein) and titrated test compound were aliquoted to each well and incubated for 30 minutes at room temperature. Substrate mixture was prepared by mixing C6 ceramide (Avanti Polar Lipids, Alabaster, AL USA (Avanti)) (micelles prepared at 0.6 mM in 0.6 mM DOPC) and UDP-glucose (20 μ.M; Promega), at concentrations equivalent to 2×Km, in assay buffer (25 mM HEPES (pH 7.5), 50 mM KCl, 5 mM MgCl2). An equivalent volume of substrate mixture was then added to each well. Following a 20 h incubation at room temperature to allow for GCS turnover of substrate, an equal volume of UDP detection reagent (Promega) was added to each well and incubated for an additional 75 minutes at room temperature to simultaneously convert the accumulated UDP product into ATP and generate light in a luciferase reaction.

Q: Which EC50 does the source give for `CCCOc1ccccc1-c1cccc2cc(C(=O)Nc3cccnc3)oc12` [US20230391758, Compound 10] here?
A: 1.8 nM
